Experimental data: US20260166159A1, “KRAS G12D DEGRADATION AGENT, AND PREPARATION METHOD AND USE THEREFOR” (LEADINGTAC PHARMACEUTICAL (SHAOXING) CO., LTD., priority 2022, published 2026)

How the values were obtained:
[1] = tested on: KRAS G12D mutant human metastatic pancreatic cancer cell AsPc-1; assay: 3D cell proliferation inhibition assay, AsPc-1; assay type: cell-based; settings: ASPC1, 168 h, AsPc-1, 7 days, CTG, numeric values
Source text: (§1) The inhibitory effects of the compounds on 3D cell proliferation were investigated on KRAS G12D mutant human lung cancer cell A427, KRAS G12D mutant human gastric cancer cell AGS, KRAS G12D mutant human metastatic pancreatic cancer cell AsPc-1, KRAS G12D mutant human pancreatic cancer cell Panc 04.03, KRAS G12D mutant human pancreatic cancer cell HPAC, KRAS G12V mutant human lung squamous cell carcinoma cell SW900, and KRAS WT human gastric cancer cell MKN1. The specific procedures were as follows:
(§2) 10 μL of each compound solution diluted in a gradient was added to corresponding wells of a 96-well low-adsorption microplate (PerkinElmer), so that the final concentrations of the test compounds in the reaction system were in a range of 10000-0.026 nM. The final concentration of DMSO was 0.2%. Then 90 µL of cells were correspondingly seeded into each well to achieve a cell density of 5×10^2 cells/well (the cell density of SW900 was 5×10^1 cells/well, and the cell density of MKN1 was 1×10^3 cells/well). In addition to test wells for the test compounds, both a DMSO control well and a medium control well were set, with the DMSO control well containing DMSO and cells and the medium well containing only a medium. After the sample loading, the 96-well low-adsorption microplate was incubated in an incubator at 37° C. with 5% carbon dioxide for 7 days. After 7 days, the microplate was taken out, and 100 μL of CTG reagent (Promega) was added to each well. The plate was incubated at room temperature for 60 min and read on a microplate reader EnVision by the chemiluminescence program. The inhibition rates of the compounds at each concentration were calculated using the formula for the percentage inhibition of cell proliferation: inhibition rate %=(mean value of DMSO control group−single concentration reading value of compound)/(mean value of DMSO control group−mean value of medium control group)×100. Then non-linear curve fittings for logarithmic concentration-inhibition rate were performed by GraphPad Prism 8, and the IC50 values of the compounds were obtained (Table 5).

[2] = tested on: KRAS G12D mutant human pancreatic cancer cell HPAC; assay: 3D cell proliferation inhibition assay, HPAC; assay type: cell-based; settings: 168 h, 7 days, CTG
Source text: as §1, §2

[3] = tested on: KRAS G12D mutant human gastric cancer cell AGS; assay: 3D cell proliferation inhibition assay, AGS; assay type: cell-based; settings: 168 h, 7 days, CTG, numeric values
Method in brief: (§3)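 Compound dilutions are added to low-adsorption wells, then cells at 5×10^2 cells/well. Final compound range is 10000–0.026 nM, with 0.2% DMSO. After 7 days at 37 °C with 5% CO2, CTG reagent is added and luminescence is read 60 min later. IC50 is fitted from inhibition relative to DMSO and medium controls.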

[4] = tested on: KRAS G12D mutant human pancreatic cancer cell Panc 04.03; assay: 3D cell proliferation inhibition assay, Panc 04.03; assay type: cell-based; settings: 168 h, Panc 04.03, 7 days, CTG, numeric values
Source text: as §1, §2

[5] = molecular target: T1, Human KRAS G12D 6His-tagged (Homo sapiens, UniProt P01116, G12D); assay: KRAS-G12D/GTP binding assay (HTRF); settings: numeric values
T1 construct: purchased PerkinElmer
Method in brief: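 Compounds at 0.02-5000 nM final (0.5% DMSO) were tested for blocking GTP Red tracer binding to His-tagged KRAS G12D, detected by Eu-cryptate anti-His antibody after 1 h, 25° C. Inhibition taken from 665/620 nm ratio relative to control, then fitted to give IC50.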

KRAS-G12D [6] = molecular target: T2, KRAS-G12D (Homo sapiens, UniProt P01116, G12D); assay: KRAS-G12D degradation assay (Western Blot), AsPc-1 cells; assay type: cell-based; settings: for DC50: 24 h; for Dmax: ASPC1, 24 h
T2 construct: endogenous in cells; host or cells: A-427 (ATCC), AGS, AsPc-1, Panc 04.03
Method: The degradation effects of the compounds on KRAS-G12D were investigated on KRAS G12D mutant human lung cancer cell A-427 (ATCC), KRAS G12D mutant human gastric cancer cell AGS, KRAS G12D mutant human metastatic pancreatic cancer cell AsPc-1, and KRAS G12D mutant human pancreatic adenocarcinoma cell Panc 04.03. The specific procedures were as follows: 0.95 mL of cells were seeded into each well of a 24-well cell culture plate to achieve a cell density of 5×10^5 cells/well; and the cell plate was incubated in an incubator at 37° C. with 5% CO2 overnight. Then 50 μL of the compound solution after dilution was added to each of the wells with the corresponding cells, so that the final concentration of the compound was in a range of 0.03-3000 nM. The final concentration of DMSO was 0.25%. After the compounds were added, the cell plate was incubated in the incubator at 37° C. with 5% CO2 for 24 h. The culture medium in the 24-well cell culture plate was removed, and the plate was washed twice with 1×PBS (KeyGEN). 120 μL of RIPA (strong) lysis buffer (Beyotime) supplemented with 1 mM phenylmethylsulfonyl fluoride, a protease inhibitor mixture (Beyotime), and a protease phosphatase inhibitor mixture (Beyotime) was added to lyse adherent A-427 cells at the bottom of the cell culture plate. After the plate was left to stand on ice for 30 min, the protein lysate in each well was transferred to a 1.5 mL centrifuge tube and centrifuged at 15000 g for 20 min at 4° C. The cell lysate supernatants after centrifugation were cryopreserved in a refrigerator at −80° C. for later use.
After the samples of the cell lysate supernatants that had been prepared were thawed from the refrigerator at −80° C., the total protein concentrations of the cell lysates were determined using a BCA protein quantification kit (Tiangen). The total protein concentrations of the samples were then adjusted to 0.5 μg/μL with PBS and 5×SDS-PAGE protein loading buffer (Beyotime), and the samples were incubated in a water bath at 100° C. for 15 min. The samples were then incubated in an ice bath for 5 min and centrifuged at 14000 g for 1 min at 4° C., and the supernatants were mixed well as loading samples for the Western Blot assay. The samples were loaded into wells of a 10% precast gel (KeyGEN) with a loading volume of 10 μL (total protein: 5 μg), a sufficient Tris-MOPS-SDS running buffer (Adamas) was added, and then electrophoresis was performed at a constant voltage of 120 V for 55 min. After the electrophoresis, the proteins on the gel were transferred to PVDF membranes at a constant current of 250 mA for 55 min. After the membrane transfer, the PVDF membranes were incubated in 1× Quick Block blocking buffer (Beyotime) at room temperature for 30 min. After the blocking, the PVDF membranes were separately incubated at 4° C. overnight with the KRAS antibody (Abcam) diluted in a ratio of 1:1000 and the […] antibody (Abcam) diluted in a ratio of 1:2000 in 5% BSA as the diluent, and then washed with 1×TBST buffer (2.4 g of Tris, 8.8 g of NaCl, 1.5 mL of Tween 20, with pH adjusted to 7.4, with the volume brought to 1 L) 3 times for 10 min/time. The membranes were incubated with a secondary antibody (Abcam) diluted in 5% BSA at room temperature for 2 h, and then washed with 1×TBST buffer 3 times for 10 min/time. Finally, the membranes were incubated with Clarity Western ECL Substrate (BIO-RAD) for 5 min for luminescence and color development, and a ChemiScope 6200 Touch chemiluminescence imaging system (Clinx) was used for color development and protein mapping. Gray value analysis of the protein maps was performed using the chemiluminescence analysis software (Clinx). The gray correction value for each sample was calculated using the formula: gray correction value=(gray value of target protein/gray value of corresponding internal reference)×10^3. Then degradation rates were calculated by comparison with the gray correction value of the control group. […]

[7] = tested on: KRAS G12D mutant human lung cancer cell A427; assay: 3D cell proliferation inhibition assay, A427; assay type: cell-based; settings: A-427, 168 h, A427, 7 days, CTG, numeric values
Method in brief: as §3

KRAS-G12D [8] = molecular target: T2, KRAS-G12D; assay: KRAS-G12D degradation assay (Western Blot), A-427 cells; assay type: cell-based; settings: A427 cells, 24 h, numeric values
Method in brief: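 Western blotting of lysates (5 μg protein) quantified KRAS against a β-actin reference after 24 h exposure to compound at final 0.03–3000 nM in 0.25% DMSO. Cells were A-427, AGS, AsPc-1 or Panc 04.03, all KRAS G12D, at 5×10^5/well. Degradation versus control yielded DC50 and Dmax.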

T2 sequence (P01116 1-188 isoform P01116-2 G12D): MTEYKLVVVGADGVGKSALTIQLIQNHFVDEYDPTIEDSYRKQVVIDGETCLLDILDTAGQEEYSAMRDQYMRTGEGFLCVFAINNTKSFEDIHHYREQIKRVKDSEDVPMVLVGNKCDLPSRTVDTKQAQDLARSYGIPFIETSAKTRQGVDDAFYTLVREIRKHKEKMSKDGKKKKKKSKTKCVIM
T1 sequence (P01116 1-188 isoform P01116-2 G12D): as above

`[2H]C([2H])([2H])c1ccc(C(=O)N2CCC3(CCC(CN4CCN(CC5(COc6nc(N7CC8CCC(C7)N8)c7cnc(-c8cc(O)cc9ccc(F)c(C#C)c89)c(F)c7n6)CC5)CC4)CC3)CC2)cc1N1CCC(=O)NC1=O` [Example 103, 1-(5-(9-((4-((1-(((4-(3,8-diazabicyclo[3.2.1]octan-3-yl)-7-(8-ethynyl-7-fluoro-3-hydroxynaphthalen-1-yl)-8-fluoropyrido[4,3-d]pyrimidin-2-yl)oxy)methyl)cyclopropyl)methyl)piperazin-1-yl)methyl)-3-azaspiro[5.5]undecane-3-carbonyl)-2-(methyl-d3)phenyl)dihydropyrimidine-2,4(1H,3H)-dione] was tested, and the IC50 [1] was 0.00141 µM, the IC50 [2] was 0.00158 µM and the IC50 [3] was 0.00435 µM. For the same compound, the IC50 [4] was 0.0168 µM.

Work on `C#Cc1c(F)ccc2cc(O)cc(-c3ncc4c(N5CC6CCC(C5)N6)nc(OCC(C)CN5CCN(CC6CCC7(CC6)CCN(C(=O)c6ccc(C)c(N8CCC(=O)NC8=O)c6)CC7)CC5)nc4c3F)c12` (centres unmarked) [Example 108, 1-(5-(9-((4-(3-((4-(3,8-diazabicyclo[3.2.1]octan-3-yl)-7-(8-ethynyl-7-fluoro-3-hydroxynaphthalen-1-yl)-8-fluoropyrido[4,3-d]pyrimidin-2-yl)oxy)-2-methylpropyl)piperazin-1-yl)methyl)-3-azaspiro[5.5]undecane-3-carbonyl)-2-methylphenyl)dihydropyrimidine-2,4(1H,3H)-dione] yielded an IC50 [1] of 0.00453 µM, an IC50 [2] of 0.00687 µM and an IC50 [5] of 0.00322 µM.

`C#Cc1c(F)ccc2cc(O)cc(-c3ccc4c(N5CC6CCC(C5)N6)nc(OC[C@H](C)CN5CCN(CC6CCC7(CC6)CCN(C(=O)c6ccc(OC)c(N8CCC(=O)NC8=O)c6)CC7)CC5)nc4c3F)c12` [Example 207, 1-(5-(9-((4-((R)-3-((4-(3,8-diazabicyclo[3.2.1]octan-3-yl)-7-(8-ethynyl-7-fluoro-3-hydroxynaphthalen-1-yl)-8-fluoroquinazolin-2-yl)oxy)-2-methylpropyl)piperazin-1-yl)methyl)-3-azaspiro[5.5]undecane-3-carbonyl)-2-methoxyphenyl)dihydropyrimidine-2,4(1H,3H)-dione] was tested, and the IC50 [1] was 0.0161 µM, the DC50 (KRAS-G12D [6]) was 0.0151 µM and the Dmax (KRAS-G12D [6]) was 99.7%. It also gave an IC50 [3] of 0.0112 µM and an IC50 [4] of 0.0345 µM.

With `C#Cc1c(F)ccc2cc(O)cc(-c3ncc4c(N5CC6CCC(C5)N6)nc(OC[C@@H](C)CN5CCN(CC6CCC7(CC6)CCN(C(=O)c6ccc(OC)c(N8CCC(=O)NC8=O)c6)CC7)CC5)nc4c3F)c12` [Example 254, 1-(5-(9-((4-((S)-3-((4-(3,8-diazaspirobicyclo[3.2.1]octan-3-yl)-7-(8-ethynyl-7-fluoro-3-hydroxynaphthalen-1-yl)-8-fluoropyrido[4,3-d]pyrimidin-2-yl)oxy)-2-methylpropyl)piperazin-1-yl)methyl)-3-azaspiro[5.5]undecane-3-carbonyl)-2-methoxyphenyl)dihydropyrimidine-2,4(1H,3H)-dione] the IC50 [1] was 0.00785 µM, the IC50 [7] was 0.0747 µM and the IC50 [2] was 0.0143 µM. It also gave a DC50 (KRAS-G12D [6]) of 0.0325 µM, a Dmax (KRAS-G12D [6]) of 83.4% and an IC50 [3] of 0.013 µM.

`COc1ccc(C(=O)N2CCC3(CCC(CN4CCN(CC5(COc6nc(N7CC8CCC(C7)N8)c7cnc(-c8cc(O)cc(Cl)c8C8CC8)c(F)c7n6)CC5)CC4)CC3)CC2)cc1N1CCC(=O)NC1=O` [Example 89] was tested, and the IC50 [1] was 0.0115 µM, the IC50 [2] was 0.0129 µM and the DC50 (KRAS-G12D [6]) was 0.0947 µM. It also gave a Dmax (KRAS-G12D [6]) of 69% and an IC50 [3] of 0.00865 µM.

Compound `[2H]C([2H])(C1CCC2(CC1)CCN(C(=O)c1ccc(C)c(N3CCC(=O)NC3=O)c1)CC2)N1CCN(CC2(COc3nc(N4CC5CCC(C4)N5)c4ccc(-c5cc(O)cc6ccc(F)c(C#C)c56)c(F)c4n3)CC2)CC1` [Example 107, 1-(5-(9-((4-((1-(((4-(3,8-diazabicyclo[3.2.1]octan-3-yl)-7-(8-ethynyl-7-fluoro-3-hydroxynaphthalen-1-yl)-8-fluoroquinazolin-2-yl)oxy)methyl)cyclopropyl)methyl)piperazin-1-yl)methyl-d2)-3-azaspiro[5.5]undecane-3-carbonyl)-2-methylphenyl)dihydropyrimidine-2,4(1H,3H)-dione] has an IC50 [1] of 0.0275 µM, a DC50 (KRAS-G12D [8]) of 0.00498 µM and a Dmax (KRAS-G12D [8]; A-427) of 94.7%. For the same compound, the IC50 [2] was 0.0108 µM, the DC50 (KRAS-G12D [6]) was 0.0137 µM and the Dmax (KRAS-G12D [6]) was 97.5%.
